Data: publication PMC10041525, “New Dual Inhibitors of Bacterial Topoisomerases with Broad-Spectrum Antibacterial Activity and In Vivo Efficacy against Vancomycin-Intermediate Staphylococcus aureus” (Journal of Medicinal Chemistry, 2023)
In brackets after ≈: the same amount, converted by molar mass.

How the values were obtained:
in vitro = details: mouse
Procedure: The assay was performed in cryopreserved mouse hepatocytes. First, the vials were thawed, the suspension added to “thawing media” and centrifuged to pellet the hepatocytes. The cell pellet was resuspended in Williams medium E (Invitrogen A1217601). […] A mixture of midazolam, diclofenac, and bufuralol at 1 μM was used as a positive control. The incubation was carried out on a heater-shaker at 37 °C, in a 24-well Picoplate (round bottom, PerkinElmer), with total incubation volume of 700 μL. […] The plate was incubated at 37 °C for 60 s. A zero sample was taken by removing 100 μL to a 96-well plate, and the reaction was quenched by adding 100 μL of acetonitrile with 50 nM warfarin as the internal standard. […] The LC–MS/MS method was the same as described above in Chapter LogD Determination.

HepG2 cell line = assay: MTS cytotoxicity assay; type: cell-based, human
Procedure: (§1) Briefly, Eagle’s minimum essential medium (Gibco, Thermo Fisher Scientific, Waltham, MA, USA) was used to culture the cells. The following supplements were added to the medium: L-glutamine (2 mM; Sigma-Aldrich, St. Louis, MO, USA), penicillin (100 U/mL; Sigma-Aldrich, St. Louis, MO, USA), streptomycin (100 μg/mL; Sigma-Aldrich, St. Louis, MO, USA), and fetal bovine serum (10%; Gibco, Thermo Fisher Scientific, Waltham, MA, USA). The cells were maintained at 37 °C in a humidified 5% CO2 atmosphere. The cells were plated in 96-well plates at a density of 2000 cells per well and incubated for 24 h. Then, the cells were treated with selected compounds, positive control (50 μM etoposide), or vehicle control (0.5% DMSO) and incubated for 72 h. The CellTiter96 Aqueous One Solution Reagent (10 μL; Promega, Madison, WI, USA) was then added to each well, and the plate was incubated for another 3 h. Absorbance at 490 nm was measured with a BioTek Synergy 4 Hybrid Microplate Reader (Winooski, VT, USA). Independent experiments were repeated three times, each performed in triplicate. Statistical significance (p < 0.05) was calculated with two-tailed Student’s t test between treated groups and DMSO. IC50 values (concentration of the compound that gives a half-maximal response) are given as average values from the independent measurements and were determined using GraphPad Prism 5.0 software (San Diego, CA, USA)

MCF-7 cell line = assay: MTS cytotoxicity assay; type: cell-based, human
Procedure: as §1

[1] = formulation solubility study; type: physicochemical
Procedure: For the actual in vivo assay, a […] pH was used, and the compound was prepared in a formulation of 100 mM carbonate buffer at pH 8.4 with 20% hydroxypropyl β-cyclodextrin.
Solubility analysis was performed on an Acquity UPLC instrument (Waters, Milford, MA, USA). A Waters BEH C18 column (2.1 × 50 mm, 1.7 μm; Waters) was used at T = 40 °C, with the flow rate of 0.5 mL/min; PDA UV detection at λ = 256 nm; mobile phase A: 0.1% formic acid in ultrapure water; mobile phase B: 0.1% formic acid in acetonitrile. Gradient: 0–4 min, 5–100% B; 4–5 min, 100% B; 5–5.1 min, 100–5% B; 5.1–7 min, 5% B.

S. aureus topo IV = S. aureus topo IV (Staphylococcus aureus, UniProt P0C1S7)
S. aureus topo IV, sequence (P0C1S7 whole entry): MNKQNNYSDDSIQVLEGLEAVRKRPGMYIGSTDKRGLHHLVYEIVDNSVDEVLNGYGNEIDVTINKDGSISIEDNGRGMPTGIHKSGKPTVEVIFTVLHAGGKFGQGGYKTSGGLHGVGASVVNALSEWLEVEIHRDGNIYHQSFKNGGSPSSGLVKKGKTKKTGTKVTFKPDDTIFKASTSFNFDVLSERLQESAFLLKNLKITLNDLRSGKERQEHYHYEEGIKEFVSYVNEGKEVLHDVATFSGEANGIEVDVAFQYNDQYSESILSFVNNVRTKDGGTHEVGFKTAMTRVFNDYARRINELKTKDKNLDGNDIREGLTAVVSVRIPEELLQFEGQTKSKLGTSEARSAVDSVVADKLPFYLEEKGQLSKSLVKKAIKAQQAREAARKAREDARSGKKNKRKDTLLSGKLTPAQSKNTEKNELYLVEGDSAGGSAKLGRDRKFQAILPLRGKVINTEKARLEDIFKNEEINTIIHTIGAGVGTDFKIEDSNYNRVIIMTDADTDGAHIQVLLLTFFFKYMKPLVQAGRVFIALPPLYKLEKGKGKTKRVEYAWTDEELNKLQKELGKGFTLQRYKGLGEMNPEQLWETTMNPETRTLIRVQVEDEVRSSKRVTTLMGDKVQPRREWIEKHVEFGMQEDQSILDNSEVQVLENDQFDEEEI
S. aureus topo IV, sequence (P0C1U9 whole entry, further chain): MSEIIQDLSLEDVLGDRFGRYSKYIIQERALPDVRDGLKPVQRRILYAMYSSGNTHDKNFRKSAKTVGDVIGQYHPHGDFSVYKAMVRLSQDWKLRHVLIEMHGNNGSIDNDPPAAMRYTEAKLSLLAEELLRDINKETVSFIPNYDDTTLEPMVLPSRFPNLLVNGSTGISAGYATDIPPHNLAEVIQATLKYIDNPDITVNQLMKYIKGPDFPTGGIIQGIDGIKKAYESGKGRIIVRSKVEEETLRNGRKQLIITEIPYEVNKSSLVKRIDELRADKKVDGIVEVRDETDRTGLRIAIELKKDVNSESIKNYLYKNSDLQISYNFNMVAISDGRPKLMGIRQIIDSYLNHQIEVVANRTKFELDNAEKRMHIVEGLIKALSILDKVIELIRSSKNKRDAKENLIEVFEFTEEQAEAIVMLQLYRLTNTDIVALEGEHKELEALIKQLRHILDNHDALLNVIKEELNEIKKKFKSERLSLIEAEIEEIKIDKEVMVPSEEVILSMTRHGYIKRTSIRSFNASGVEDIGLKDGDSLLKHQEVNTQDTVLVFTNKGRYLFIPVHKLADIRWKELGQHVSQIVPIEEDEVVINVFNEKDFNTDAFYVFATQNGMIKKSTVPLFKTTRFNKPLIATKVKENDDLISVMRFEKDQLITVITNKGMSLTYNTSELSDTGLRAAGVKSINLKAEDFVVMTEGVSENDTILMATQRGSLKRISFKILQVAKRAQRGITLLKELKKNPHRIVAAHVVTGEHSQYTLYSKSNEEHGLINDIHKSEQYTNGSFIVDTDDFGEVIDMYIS
Procedure: In all experiments, the activity of the
enzymes was determined prior to the testing of the compound and 1 unit (U) was defined as the
amount of enzyme required to just fully supercoil or decatenate the substrate. This amount of
enzyme was initially used in determination of control inhibitor activity. These experiments were
performed in duplicate. […] The final DMSO
concentration was 1% for all assays. All measurements were performed in quadruplicates. The
condition for each reaction were as follows:
− S. aureus gyrase supercoiling assay
1 U of S. aureus gyrase was incubated with 0.5 µg of relaxed pBR322 DNA in a 30 µL reaction at
magnesium acetate, 10 mM DTT, 2 mM ATP, 500 mM potassium glutamate and 0.05 mg/mL
− S. aureus topo IV decatenation assay
1 U of S. aureus topo IV was incubated with 20 µg kDNA in a 30 µL reaction at 37 °C for 30
mM ATP, 350 mM potassium glutamate and 0.05 mg/mL albumin.
− A. baumannii gyrase supercoiling assay
1 U of A. baumannii gyrase was incubated with 0.5 µg of relaxed pBR322 DNA in a 30 µL reaction
blue), before being loaded on a 1.0% TAE gel run at 80V for 2 hours. Bands were visualised by
ethidium bromide staining for 20 minutes and destaining for 20 minutes. Gels were scanned using
documentation equipment (GeneGenius, Syngene, Cambridge, UK) and % inhibition levels were
measured by determining the relative fluorescence of the supercoiled band using gel scanning
software. […]

Compound: Cc1[nH]c(C(=O)Nc2nc3c(N4CCOCC4)cc(C(=O)O)cc3s2)c(Cl)c1Cl [7a, 2-(3,4-Dichloro-5-methyl-1H-pyrrole-2-carboxamido)-4-morpholinobenzo[d]thiazole-6-carboxylic Acid]
- ClH (pred.) (in vitro): 0.05 mL/min
- Clint (pred. in vivo) (in vitro; hepatocytes): 2.1 mL/min
- half-life at 1.5 h, 1 µM (in vitro; hepatocytes): 2.67 h
- hepatocyte CLint at 1.5 h, 1 µM (in vitro; hepatocytes): 9 µL/min/1e6 cells
- cytotoxic concentration (no cytotoxicity up to) (HepG2 cell line; with serum, 72 h): > 100 µM
- cytotoxic concentration (no cytotoxicity up to) (HepG2 cell line; without fetal bovine serum): > 100 µM
- cytotoxic concentration (no cytotoxicity up to) (MCF-7 cell line; with serum, 72 h): > 100 µM
- cytotoxic concentration (no cytotoxicity up to) (MCF-7 cell line; without fetal bovine serum): > 100 µM
- solubility ([1]; 100 mM carbonate buffer with 20% CD, pH 8.0, 20% CD): 3800 µg/mL (≈ 8.35 mM)
- solubility ([1]; 100 mM carbonate buffer, pH 9.0, 20% hydroxypropyl β-cyclodextrin): 13200 µg/mL (≈ 29 mM)
- IC50 (S. aureus topo IV): 8 ± 1.2 nM
